Tests used:
hPXR = target: T1, hPXR (Homo sapiens, UniProt O75469); assay: HG5LN Gal4-hPXR luciferase reporter gene assay, agonism
T1 sequence (O75469 146-433 limits assumed): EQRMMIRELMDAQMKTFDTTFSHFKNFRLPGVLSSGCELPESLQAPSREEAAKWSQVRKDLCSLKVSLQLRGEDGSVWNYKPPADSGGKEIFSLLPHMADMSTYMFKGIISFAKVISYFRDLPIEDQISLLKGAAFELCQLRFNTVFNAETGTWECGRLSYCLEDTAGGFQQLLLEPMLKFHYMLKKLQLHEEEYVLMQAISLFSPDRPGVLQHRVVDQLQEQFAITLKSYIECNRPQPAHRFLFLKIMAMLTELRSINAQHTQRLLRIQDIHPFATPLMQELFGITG
Description: (§1) The cell lines used in this study are listed in Supplementary Table 3 . The HG5LN, HG5LN Gal4-hPXR and HG5LN Gal4-zfPXR cell lines were previously described ([19]). Briefly, HeLa cells stably transfected with the GAL4RE5-βGlobin-Luc-SVNeo plasmid (HG5LN cell line) ([15]). HG5LN cells were stably transfected with the pSG5-GAL4(DBD)-hPXR(LBD)-puro or pSG5-GAL4(DBD)-zfPXR(LBD)-puro plasmids.
(§2) HG5LN cells were cultured in Dulbecco’s Modified Eagle Medium: Nutrient Mixture F-12 (D-MEM/F-12) containing phenol red and 1 g/L glucose and supplemented with 5% fetal bovine serum, 100 units/mL of penicillin and 100 µg/mL of streptomycin supplemented with 1 mg/mL geneticin in a 5% CO2 humidified atmosphere at 37°C. HG5LN GAL4-hPXR and GAL4-zfPXR were cultured in the same culture medium supplemented with 0.5 µg/mL puromycin.
(§3) The ability of chemicals to modulate the hPXR and zfPXR was investigated in HG5LN, HG5LN-hPXR, HG5LN-zfPXR, and ZFL-zfPXR cell lines after exposure to serial dilutions of the compounds and measurement of luciferase activity. […] Briefly, cells were seeded in 96-well white opaque flat bottom microplates at 0.5 10^5 cells per well in culture medium. […] Cells were then exposed to a concentration range of the compounds by using an automated workstation (Biomek 3000, Beckman Coulter). The final concentration of DMSO in the well never exceeds 0.1% (v/v). After 16h of exposure, medium was removed and 50 µL of test medium containing 0.3 mM D-luciferin were added per well. After 5 min, the production of light was assessed in living cells using microplate reader (MicroBeta, PerkinElmer SAS, Courtabœuf, France).
(§4) In the transactivation assay, each compound was tested at various concentrations in three independent experiments at least. For each experiment, tests were performed in quadruplicates for each concentration, and data are expressed by means values with standard deviations. […] This allowed to determine EC50 and IC50 values of tested chemicals.

zfPXR [1] = target: T2, zfPXR (Danio rerio, UniProt A5WYG8); assay: HG5LN Gal4-zfPXR luciferase reporter gene assay, agonism; type: cell-based, zebrafish
T2 sequence (A5WYG8 entry or part of it): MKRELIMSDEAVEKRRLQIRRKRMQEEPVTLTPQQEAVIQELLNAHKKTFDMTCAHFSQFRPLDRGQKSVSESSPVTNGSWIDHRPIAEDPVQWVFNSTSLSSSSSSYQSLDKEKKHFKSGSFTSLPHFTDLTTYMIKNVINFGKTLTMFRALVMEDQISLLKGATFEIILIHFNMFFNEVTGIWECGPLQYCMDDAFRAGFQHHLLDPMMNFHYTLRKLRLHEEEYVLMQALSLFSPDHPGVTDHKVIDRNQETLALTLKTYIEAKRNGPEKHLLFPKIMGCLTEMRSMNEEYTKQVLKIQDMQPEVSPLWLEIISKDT
Description: as §1, §2, §3, §4

zfPXR [2] = target: T2, zfPXR; assay: cell-based; parameters: Emax: dose or concentration left out as unconfirmed
Description: as §3, §4

Q: With `CCC(CC)Nc1c([N+](=O)[O-])cc(C)c(C)c1[N+](=O)[O-]` [Pendimethalin] as the compound, how does the EC50 (hPXR) read?
A: The EC50 was 3000 ± 100 nM.

Q: And the “hPXR agonism Max” value (hPXR)?
A: Its value is 91%.

Q: What about the EC50 (zfPXR [1]) of the same compound?
A: The EC50 was 470 ± 100 nM.

Q: What about the EC50 (zfPXR [2]) of the same compound?
A: The EC50 was 120 ± 10 nM.

Q: And the Emax (zfPXR [2]; read-out: zfPXR agonism Max)?
A: Its Emax is 92%.

Q: For `C#C[C@]1(O)CC[C@H]2[C@@H]3CCC4=CCCC[C@@H]4[C@H]3C(=C)C[C@@]21CC` [Desogestrel, reference compound], which “hPXR agonism Max” value (hPXR) is on record?
A: Its value is 54%.

Q: What about the EC50 (zfPXR [1]; HG5LN-zfPXR cells, 16h exposure, n.a. = not active, read-out: zfPXR agonism EC50) of the same compound?
A: The EC50 was 130 ± 10 nM.

Q: And the EC50 (zfPXR [2])?
A: The EC50 was 70 ± 4 nM.
